From ChEMBL document CHEMBL4806958, “Anti-cancer/anti-fibrosis compounds” (2020)

Experiments:
[1] = biological target: Casein kinase II subunit alpha (Homo sapiens, UniProt P68400); assay: Inhibition of CSNK2A1(unknown origin) using Ser/Thr 11 as substrate incubated for 60 mins in presence of ATP by Z'-LYTE assay
[2] = biological target: Homeodomain-interacting protein kinase 2 (Homo sapiens, UniProt Q9H2X6); assay: Inhibition of HIPK2 (unknown origin) using Ser/Thr 09 as substrate incubated for 60 mins in presence of ATP by Z'-Lyte assay
Homeodomain-interacting protein kinase 2, sequence (Q9H2X6 whole entry): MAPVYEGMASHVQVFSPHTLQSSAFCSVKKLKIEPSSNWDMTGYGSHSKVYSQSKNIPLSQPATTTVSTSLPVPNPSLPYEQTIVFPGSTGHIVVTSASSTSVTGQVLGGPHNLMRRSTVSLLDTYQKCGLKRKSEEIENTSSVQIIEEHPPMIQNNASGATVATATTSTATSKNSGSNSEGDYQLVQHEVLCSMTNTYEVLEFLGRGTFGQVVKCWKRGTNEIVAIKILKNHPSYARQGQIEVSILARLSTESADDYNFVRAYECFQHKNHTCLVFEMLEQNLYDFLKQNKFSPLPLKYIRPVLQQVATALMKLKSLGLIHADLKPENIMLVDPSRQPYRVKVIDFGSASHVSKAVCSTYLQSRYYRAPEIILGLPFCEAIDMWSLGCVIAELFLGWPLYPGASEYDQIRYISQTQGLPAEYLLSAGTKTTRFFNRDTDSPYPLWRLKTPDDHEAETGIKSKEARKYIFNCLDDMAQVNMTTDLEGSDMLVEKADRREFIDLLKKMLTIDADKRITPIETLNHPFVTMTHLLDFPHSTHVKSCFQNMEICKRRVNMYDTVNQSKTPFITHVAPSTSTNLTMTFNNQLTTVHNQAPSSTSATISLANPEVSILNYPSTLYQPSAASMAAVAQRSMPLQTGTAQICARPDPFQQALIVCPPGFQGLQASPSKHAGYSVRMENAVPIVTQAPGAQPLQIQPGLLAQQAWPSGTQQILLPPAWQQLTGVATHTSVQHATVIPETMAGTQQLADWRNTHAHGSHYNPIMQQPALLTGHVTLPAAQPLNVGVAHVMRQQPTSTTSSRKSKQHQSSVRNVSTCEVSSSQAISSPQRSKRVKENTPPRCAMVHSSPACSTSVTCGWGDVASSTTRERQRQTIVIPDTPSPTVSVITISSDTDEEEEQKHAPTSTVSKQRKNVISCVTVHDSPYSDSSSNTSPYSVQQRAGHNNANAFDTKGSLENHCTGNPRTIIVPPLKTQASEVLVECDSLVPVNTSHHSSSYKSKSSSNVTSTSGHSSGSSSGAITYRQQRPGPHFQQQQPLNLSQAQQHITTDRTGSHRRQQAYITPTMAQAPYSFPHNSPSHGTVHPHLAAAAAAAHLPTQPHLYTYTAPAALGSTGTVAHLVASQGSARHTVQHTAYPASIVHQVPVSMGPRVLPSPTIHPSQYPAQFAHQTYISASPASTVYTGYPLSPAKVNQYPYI

Casein kinase II subunit alpha, sequence (P68400 whole entry): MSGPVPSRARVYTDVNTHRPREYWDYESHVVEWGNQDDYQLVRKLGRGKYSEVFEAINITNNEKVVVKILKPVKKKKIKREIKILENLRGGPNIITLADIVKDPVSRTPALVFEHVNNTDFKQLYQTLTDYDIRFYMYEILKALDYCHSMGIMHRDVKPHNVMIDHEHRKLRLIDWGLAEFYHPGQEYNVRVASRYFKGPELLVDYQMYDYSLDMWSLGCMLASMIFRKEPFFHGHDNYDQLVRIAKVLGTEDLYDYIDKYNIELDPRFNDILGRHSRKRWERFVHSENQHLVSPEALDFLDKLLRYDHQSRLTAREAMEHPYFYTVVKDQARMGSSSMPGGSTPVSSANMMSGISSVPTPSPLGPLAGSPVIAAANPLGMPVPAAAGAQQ

SMILES	IC50 [1] [nM]	IC50 [2] [nM]
N#Cc1cc2cc(C(=O)O)ccc2c2cnccc12	< 300	–
O=C(O)c1ccc2c(ccc3ccncc32)c1	< 300	–
CC[C@H](C)Nc1cc2cc(C(=O)O)ccc2c2cnccc12	< 300	–
O=C(O)c1ccc2c(ccc3ccnc(Cl)c32)c1	< 300	–
O=C(O)c1ccc2c(c1)cc(Br)c1cc(Cl)ncc12	–	> 5000
O=C(O)c1ccc2c(c1)cc(N1CCCCC1)c1ccncc12	< 300	–

The remaining lines, values ahead:

IC50 [1] [nM]	IC50 [2] [nM]	SMILES
< 300	–	Cc1cc2cc(C(=O)O)ccc2c2cnccc12
< 300	–	O=C(O)c1ccc2c(c1)cc(-c1ccncc1)c1ccncc12
< 300	–	Nc1ccc(-c2cc3cc(C(=O)O)ccc3c3cnccc23)cn1
< 300	–	O=C(O)c1ccc2c(c1)cc(Nc1cccc(Cl)c1)c1ccncc12
< 300	–	O=C(O)c1ccc2c(c1)cc(-c1cccnc1)c1ccncc12
< 300	–	O=C(O)c1ccc2c(c1)cc(Nc1ccc(Cl)cc1)c1ccncc12
< 300	< 300	CC[C@@H](C)Nc1cc2cc(C(=O)O)ccc2c2cnccc12
< 300	–	CC(C)Nc1cc2cc(C(=O)O)ccc2c2cnccc12
